According to the supplement of paper PMC10307832:

Columns and labels:
Assay in all cases: relative viability (nuclei count vs DMSO), 5 days (fraction); higher = more cells survive
GSK-J4 + Luminespib = compound: CCOC(=O)CCNc1cc(N2CCc3ccccc3CC2)nc(-c2ccccn2)n1 [GSK-J4] + CCNC(=O)c1noc(-c2cc(C(C)C)c(O)cc2O)c1-c1ccc(CN2CCOCC2)cc1 [Luminespib] (partner 0.01 µM)
Outline: (§1)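 One day after seeding in 1536-well plates, lung cancer cell lines were dosed by pin tool. Dosing was either single-drug or a fixed anchor-drug dose plus five library-drug doses (not always all listed) in √10 steps. After 5 days, nuclei were stained in one fix-and-stain step and counted on 4× images, and relative viability is the nuclei count of treated wells over that of vehicle wells, given as the median of duplicate plates.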

AZ3146 + Trametinib = compound: CN1CCC(CC1)OC2=CC(=C(C=C2)NC3=NC=C4C(=N3)N(C(=O)N4C)C5CCCC5)OC [AZ3146] + CC(=O)Nc1cccc(-n2c(=O)n(C3CC3)c(=O)c3c(Nc4ccc(I)cc4F)n(C)c(=O)c(C)c32)c1 [Trametinib] (partner 0.02 µM)
Outline: as §1

AZ3146 + Linsitinib = compound: CN1CCC(CC1)OC2=CC(=C(C=C2)NC3=NC=C4C(=N3)N(C(=O)N4C)C5CCCC5)OC [AZ3146] + C[C@]1(O)C[C@@H](c2nc(-c3ccc4ccc(-c5ccccc5)nc4c3)c3c(N)nccn32)C1 [Linsitinib] (partner 1 µM)
Outline: as §1

AZ3146 + Decitabine = compound: CN1CCC(CC1)OC2=CC(=C(C=C2)NC3=NC=C4C(=N3)N(C(=O)N4C)C5CCCC5)OC [AZ3146] + Nc1ncn([C@H]2C[C@H](O)[C@@H](CO)O2)c(=O)n1 [Decitabine] (partner 2 µM)
Outline: as §1

Cell Line	relative viability (GSK-J4 + Luminespib; first compound 0.5 µM)	relative viability (GSK-J4 + Luminespib; first compound 1.581 µM)	relative viability (GSK-J4 + Luminespib; first compound 5 µM)	relative viability (GSK-J4 + Luminespib; first compound 15.81 µM)	relative viability (GSK-J4 + Luminespib; first compound 50 µM)	relative viability (AZ3146 + Trametinib; first compound 0.08 µM)	relative viability (AZ3146 + Trametinib; first compound 0.253 µM)	relative viability (AZ3146 + Trametinib; first compound 0.8 µM)	relative viability (AZ3146 + Trametinib; first compound 2.53 µM)	relative viability (AZ3146 + Trametinib; first compound 8 µM)	relative viability (AZ3146 + Linsitinib; first compound 0.08 µM)	relative viability (AZ3146 + Linsitinib; first compound 0.253 µM)	relative viability (AZ3146 + Linsitinib; first compound 0.8 µM)	relative viability (AZ3146 + Linsitinib; first compound 2.53 µM)	relative viability (AZ3146 + Linsitinib; first compound 8 µM)	relative viability (AZ3146 + Decitabine; first compound 0.08 µM)	relative viability (AZ3146 + Decitabine; first compound 0.253 µM)	relative viability (AZ3146 + Decitabine; first compound 0.8 µM)	relative viability (AZ3146 + Decitabine; first compound 2.53 µM)	relative viability (AZ3146 + Decitabine; first compound 8 µM)
LCLC-103H	0.96	0.917	1.01	0.882	0.486	0.619	0.663	0.721	0.666	0.653	1.06	0.978	1.16	1.13	1.1	0.675	0.732	0.742	0.741	0.729
LK-2	0.191	–	0.151	0.193	0.159	0.591	0.684	0.956	0.914	0.747	0.672	0.645	0.562	0.519	0.729	–	0.372	0.284	0.319	0.337
LOU-NH91	0.347	0.329	0.254	0.267	0.246	0.838	0.76	0.867	0.794	0.781	0.954	0.84	1.06	0.914	0.895	0.816	0.77	0.886	0.829	0.783
LU99A	0.201	0.267	–	0.244	0.223	–	0.501	0.567	0.68	0.579	0.419	0.556	0.589	0.502	0.557	–	0.848	0.879	0.82	1.02
LXF-289	0.648	0.639	0.785	0.627	0.507	0.629	0.688	0.633	0.651	0.633	0.885	1.01	0.965	0.957	0.939	0.356	0.382	0.403	0.432	0.388
NCI-H23	0.212	0.197	0.215	0.209	0.201	0.455	0.354	0.391	0.422	0.402	0.584	0.563	0.616	0.656	0.605	0.329	0.313	0.324	0.354	0.425
NCI-H322M	0.857	0.756	0.953	0.646	0.542	0.555	0.45	0.435	0.537	0.527	0.937	0.884	0.868	0.991	0.842	0.604	0.671	0.727	0.698	0.721
NCI-H358	0.292	0.304	0.354	0.397	0.337	0.162	0.123	0.139	0.127	0.12	0.868	0.744	0.65	0.75	0.461	0.201	0.225	0.182	0.207	0.159
